Legend:
Assay in all cases: selective drug sensitivity score (sDSS, relative to normal bone marrow) (sDSS (score)); higher = more potent and effective on the cell line relative to normal bone marrow cells
Details in all cases: 72 h
[1] = tested on: CCRF-HSB2
[2] = tested on: MN-60
[3] = tested on: COG-LL-319h
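Note: ALL cell lines in 384-well plates, five doses spanning 10,000-fold, each plate scaled between vehicle and 100 µmol/L benzalkonium chloride controls, sDSS an adapted area-under-curve metric.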

Cc1ccc(C(=O)N(CCCN)[C@@H](c2oc3cc(Cl)ccc3c(=O)c2Cc2ccccc2)C(C)C)cc1 (top concentration 100 nM)
selective drug sensitivity score [1]: 9.56 | selective drug sensitivity score [2]: -1.84 | selective drug sensitivity score [3]: 13

C[C@@H](Oc1ccc2[nH]nc(/C=C/c3cnn(CCO)c3)c2c1)c1c(Cl)cncc1Cl (top concentration 1000 nM)
selective drug sensitivity score [1]: 3.86 | selective drug sensitivity score [2]: -7.04 | selective drug sensitivity score [3]: 4.66

CCn1c(C(=O)N(C2CC2)C2CC2)cc2c3c(ncn3C)c(Nc3cc(C)n(C)n3)nc21 (top concentration 10000 nM)
selective drug sensitivity score [1]: 5.14 | selective drug sensitivity score [2]: -4.36 | selective drug sensitivity score [3]: -4.36

CNc1nc(-c2ccc3c(N)n[nH]c3c2)cc(N2C[C@@H](C(=O)NC3CCCCC3)CC[C@H]2C)n1 (top concentration 10000 nM)
selective drug sensitivity score [1]: -0.14 | selective drug sensitivity score [2]: 2.96 | selective drug sensitivity score [3]: 2.96

COc1ccc(Cn2ccc3ccc(C(=O)NO)cc32)cc1 (top concentration 10000 nM)
selective drug sensitivity score [1]: 6.64 | selective drug sensitivity score [2]: 3.44 | selective drug sensitivity score [3]: 8.04

N#Cc1ccc(COC[C@H]2O[C@@H](n3c(NCc4ccc(Cl)c(Cl)c4)nc4c(N)ncnc43)[C@H](O)[C@@H]2O)cc1 (top concentration 10000 nM)
selective drug sensitivity score [1]: 9.92 | selective drug sensitivity score [2]: 2.12 | selective drug sensitivity score [3]: 7.52

NC[C@@](O)(c1ccc(Cl)cc1)c1ccc(-c2cn[nH]c2)cc1 (top concentration 10000 nM)
selective drug sensitivity score [1]: 5.28 | selective drug sensitivity score [2]: 0.58 | selective drug sensitivity score [3]: 1.48

O=c1[nH]c(C2CCCN2)nc2c1oc1ccc(Cl)cc12 (centres undefined) (top concentration 10000 nM)
selective drug sensitivity score [1]: 3.7 | selective drug sensitivity score [2]: -2.7 | selective drug sensitivity score [3]: 2

NCC(=O)Nc1ccc(-n2nc(C(F)(F)F)cc2-c2ccc3c(ccc4ccccc43)c2)cc1 (top concentration 25000 nM)
selective drug sensitivity score [1]: 16.4 | selective drug sensitivity score [2]: 18.9 | selective drug sensitivity score [3]: 8

Nc1ncnc2c1nc(Cl)n2[C@@H]1O[C@H](CO)[C@@H](O)[C@H]1O [8-chloro-adenosine] (top concentration 50000 nM)
selective drug sensitivity score [1]: 3.6 | selective drug sensitivity score [2]: -2.8 | selective drug sensitivity score [3]: 4.3

COc1ccc(S(=O)(=O)Nc2cccnc2Nc2ccc(O)cc2)cc1 [ABT-751] (top concentration 10000 nM)
selective drug sensitivity score [1]: 13 | selective drug sensitivity score [2]: 5.42 | selective drug sensitivity score [3]: 10.7

CC1CCC(n2c3cnccc3c3cnc(Nc4ccc5c(n4)CCN(C(=O)CO)C5)nc32)CC1 (centres undefined) [AMG-925] (top concentration 1000 nM)
selective drug sensitivity score [1]: 1.94 | selective drug sensitivity score [2]: -0.66 | selective drug sensitivity score [3]: 6.44

O=C(NC1CCNCC1)c1n[nH]cc1NC(=O)c1c(Cl)cccc1Cl [AT7519] (top concentration 10000 nM)
selective drug sensitivity score [1]: -3.46 | selective drug sensitivity score [2]: -11.4 | selective drug sensitivity score [3]: -4.26

Cc1cc2c(C(C)C)c(O)c(O)c(C=O)c2c(O)c1-c1c(C)cc2c(C(C)C)c(O)c(O)c(C=O)c2c1O [AT-101] (top concentration 100000 nM)
selective drug sensitivity score [1]: 2.48 | selective drug sensitivity score [2]: 3.28 | selective drug sensitivity score [3]: 4.48

N[C@@H]1CCCN(c2c(/C=C3\SC(=O)NC3=O)cccc2-c2ccccc2)C1 [AZD1208] (top concentration 10000 nM)
selective drug sensitivity score [1]: 6.5 | selective drug sensitivity score [2]: -1.8 | selective drug sensitivity score [3]: -4.4

Cc1ncc(-c2ccnc(Nc3ccc(S(C)(=O)=O)cc3)n2)n1C(C)C [AZD-5438] (top concentration 10000 nM)
selective drug sensitivity score [1]: 1.34 | selective drug sensitivity score [2]: -7.96 | selective drug sensitivity score [3]: 8.54

CCN1CCN(Cc2ccc(Nc3ncc(F)c(-c4cc(F)c5nc(C)n(C(C)C)c5c4)n3)nc2)CC1 [Abemaciclib] (top concentration 2500 nM)
selective drug sensitivity score [1]: -2.46 | selective drug sensitivity score [2]: -8.16 | selective drug sensitivity score [3]: 6.64

Cn1ncc(Cl)c1-c1cc(C(=O)N[C@H](CN)Cc2cccc(F)c2)sc1Cl [Afuresertib] (top concentration 1000 nM)
selective drug sensitivity score [1]: 0.86 | selective drug sensitivity score [2]: -0.54 | selective drug sensitivity score [3]: 7.76

O=C(Nc1cc(Oc2cc(F)c(NC(=O)C3(C(=O)Nc4ccc(F)cc4)CC3)cc2F)ccn1)C1CC1 [Altiratinib] (top concentration 10000 nM)
selective drug sensitivity score [1]: 8.14 | selective drug sensitivity score [2]: -4.86 | selective drug sensitivity score [3]: 2.84

CN1CC[C@H](c2c(O)cc(O)c3c(=O)cc(-c4ccccc4Cl)oc23)[C@H](O)C1 [Alvocidib] (top concentration 10000 nM)
selective drug sensitivity score [1]: 2.2 | selective drug sensitivity score [2]: -3.9 | selective drug sensitivity score [3]: -2.7

CC(C)c1c(C(=O)Nc2ccccc2)c(-c2ccccc2)c(-c2ccc(F)cc2)n1CC[C@@H](O)C[C@@H](O)CC(=O)O [Atorvastatin] (top concentration 10000 nM)
selective drug sensitivity score [1]: -2.1 | selective drug sensitivity score [2]: -2.5 | selective drug sensitivity score [3]: -1

Nc1ncn([C@@H]2O[C@H](CO)[C@@H](O)[C@H]2O)c(=O)n1 [Azacitidine] (top concentration 10000 nM)
selective drug sensitivity score [1]: -0.56 | selective drug sensitivity score [2]: 0.84 | selective drug sensitivity score [3]: 7.84

Cc1cc(-c2nc(-c3ccc(OC(F)(F)F)cc3)no2)nn1Cc1ccnc(N2CCN(C3CC3)CC2)c1 [BAY_87-2243] (top concentration 1000 nM)
selective drug sensitivity score [1]: 14.9 | selective drug sensitivity score [2]: 25.6 | selective drug sensitivity score [3]: 2.54

O=C(Nc1cccc(Nc2ncc(Br)c(NCCc3cnc[nH]3)n2)c1)N1CCCC1 [BX-912] (top concentration 10000 nM)
selective drug sensitivity score [1]: 9.66 | selective drug sensitivity score [2]: -1.44 | selective drug sensitivity score [3]: 12.7

C=C(c1ccc(C(=O)O)cc1)c1cc2c(cc1C)C(C)(C)CCC2(C)C [Bexarotene] (top concentration 10000 nM)
selective drug sensitivity score [1]: -0.9 | selective drug sensitivity score [2]: -5.3 | selective drug sensitivity score [3]: -5.3

Cn1cnc2c(F)c(Nc3ccc(Br)cc3F)c(C(=O)NOCCO)cc21 [Binimetinib] (top concentration 1000 nM)
selective drug sensitivity score [1]: -0.32 | selective drug sensitivity score [2]: -2.22 | selective drug sensitivity score [3]: 2.98

COc1cc(N2CCC(N3CCN(C)CC3)CC2)ccc1Nc1ncc(Cl)c(Nc2ccccc2P(C)(C)=O)n1 [Brigatinib] (top concentration 1000 nM)
selective drug sensitivity score [1]: -1.14 | selective drug sensitivity score [2]: -2.54 | selective drug sensitivity score [3]: 3.26

CC1=NN(c2ccc(C(=O)O)cc2)C(=O)C1=Cc1ccc(-c2cc(C)c(C)cc2[N+](=O)[O-])o1 [C646] (top concentration 25000 nM)
selective drug sensitivity score [1]: 3.14 | selective drug sensitivity score [2]: -2.06 | selective drug sensitivity score [3]: 11.7

CCN1C(=O)CNc2ncc(-c3ccc(-c4nc[nH]n4)nc3C)nc21 [CC-115] (top concentration 10000 nM)
selective drug sensitivity score [1]: 2.64 | selective drug sensitivity score [2]: 1.54 | selective drug sensitivity score [3]: 11.7

Cc1noc2c1-c1ccccc1C(c1ccc(Cl)cc1)=N[C@H]2CC(N)=O [CPI-0610] (top concentration 10000 nM)
selective drug sensitivity score [1]: 0.8 | selective drug sensitivity score [2]: 6.9 | selective drug sensitivity score [3]: 10.3

Cc1cc(Nc2ncc(Cl)c(Nc3ccccc3S(=O)(=O)C(C)C)n2)c(OC(C)C)cc1C1CCNCC1 [Ceritinib] (top concentration 2500 nM)
selective drug sensitivity score [1]: -3.44 | selective drug sensitivity score [2]: -2.64 | selective drug sensitivity score [3]: 6.66

Nc1nc(Cl)nc2c1ncn2[C@@H]1O[C@H](CO)[C@@H](O)[C@@H]1F [Clofarabine] (top concentration 10000 nM)
selective drug sensitivity score [1]: 6.8 | selective drug sensitivity score [2]: -7.1 | selective drug sensitivity score [3]: 5.6

CC1(COc2ccc3c(c2)ncn3-c2ccc3cccc(N4CCC(N)CC4)c3n2)COC1 [Crenolanib] (top concentration 10000 nM)
selective drug sensitivity score [1]: 4.98 | selective drug sensitivity score [2]: -3.42 | selective drug sensitivity score [3]: -3.92

Cc1nc(Nc2ncc(C(=O)Nc3c(C)cccc3Cl)s2)cc(N2CCN(CCO)CC2)n1 [Dasatinib] (top concentration 1000 nM)
selective drug sensitivity score [1]: 37.8 | selective drug sensitivity score [2]: -1.7 | selective drug sensitivity score [3]: 9.2

CCc1cnn2c(NCc3ccc[n+]([O-])c3)cc(N3CCCC[C@H]3CCO)nc12 [Dinaciclib] (top concentration 1000 nM)
selective drug sensitivity score [1]: -2.74 | selective drug sensitivity score [2]: -7.74 | selective drug sensitivity score [3]: 7.16

COc1cccc2c1C(=O)c1c(O)c3c(c(O)c1C2=O)C[C@@](O)(C(=O)CO)C[C@@H]3O[C@H]1C[C@H](N)[C@H](O)[C@H](C)O1 [Doxorubicin] (top concentration 1000 nM)
selective drug sensitivity score [1]: 14.4 | selective drug sensitivity score [2]: -2.12 | selective drug sensitivity score [3]: 13.4

C=C1C[C@@H]2[C@H](CC[C@]3(C)C(=O)CC[C@@H]23)[C@@]2(C)C=CC(=O)C=C12 [Exemestane] (top concentration 10000 nM)
selective drug sensitivity score [1]: -1 | selective drug sensitivity score [2]: -1.9 | selective drug sensitivity score [3]: 10

COc1cc2c(Oc3ccc(NC(=O)C4(C(=O)Nc5ccc(F)cc5)CC4)cc3F)ccnc2cc1OCCCN1CCOCC1 [Foretinib] (top concentration 1000 nM)
selective drug sensitivity score [1]: 6.24 | selective drug sensitivity score [2]: -4.46 | selective drug sensitivity score [3]: 3.44

COc1cc(Nc2ncc(F)c(Nc3ccc4c(n3)N(COP(=O)(O)O)C(=O)C(C)(C)O4)n2)cc(OC)c1OC [Fostamatinib] (top concentration 2500 nM)
selective drug sensitivity score [1]: 4.46 | selective drug sensitivity score [2]: -1.34 | selective drug sensitivity score [3]: 15.3

CC1(C)OCCn2c1nc1c(N3CCOCC3)nc(-c3cnc(N)nc3)nc12 [GDC-0084] (top concentration 10000 nM)
selective drug sensitivity score [1]: 6.1 | selective drug sensitivity score [2]: 5.2 | selective drug sensitivity score [3]: 3

CC(C)c1cc(-c2n[nH]c(=O)n2-c2ccc3c(ccn3C)c2)c(O)cc1O [Ganetespib] (top concentration 1000 nM)
selective drug sensitivity score [1]: 4.34 | selective drug sensitivity score [2]: -5.06 | selective drug sensitivity score [3]: 1.14

CCc1nc(C(N)=O)c(Nc2ccc(N3CCC(N4CCN(C)CC4)CC3)c(OC)c2)nc1NC1CCOCC1 [Gilteritinib] (top concentration 1000 nM)
selective drug sensitivity score [1]: 0.08 | selective drug sensitivity score [2]: -2.52 | selective drug sensitivity score [3]: 13.6

CCN(CC)Cc1ccc2cc(COC(=O)Nc3ccc(C(=O)NO)cc3)ccc2c1 [Givinostat] (top concentration 1000 nM)
selective drug sensitivity score [1]: 4.5 | selective drug sensitivity score [2]: -1.2 | selective drug sensitivity score [3]: 10.1
